The values that follow come from patent US12427157B2, “Methods for treatment of diseases involving acidic or hypoxic diseased tissues” (Cybrexa 1, Inc., priority 2018, dated 2025).

The structures appear in SMILES notation. Read-outs that look alike come from different tables or passages of the source. Residues, ends and D or L forms follow the SMILES beside them. *: point of attachment. X7 = C[C@@H](COC(=O)NCN1c2cc(F)cc3c(=O)[nH]nc(c23)[C@H](c2ncnn2C)[C@H]1c1ccc(F)cc1)S*; X4 = C[C@H](COC(=O)NCN1c2cc(F)cc3c(=O)[nH]nc(c23)[C@H](c2ncnn2C)[C@H]1c1ccc(F)cc1)S*; X1 = Cn1ncnc1[C@H]1c2n[nH]c(=O)c3cc(F)cc(c23)N(CNC(=O)OCCS*)[C@@H]1c1ccc(F)cc1; X14 = C[C@@H](COC(=O)N1CCC[C@]1(C)c1nc2c(C(N)=O)cccc2[nH]1)S*; X16 = C[C@H](COC(=O)N1CCC[C@]1(C)c1nc2c(C(N)=O)cccc2[nH]1)S*; X22 = C[C@]1(c2nc3c(C(N)=O)cccc3[nH]2)CCCN1C(=O)OCCS*

For one assay, the system named is DLD-1 BRCA2−/− cells. Briefly: Growth delay assay. Format: cell-based, Human. To be noted: pH 7.4, BRCA (−/−) DLD-1, 96 h. As for the experimental part:
Cells were plated in 96 well black walled-clear bottom plates (Griener), DLD-1 WT cells at 2500 cells per well, DLD-1 BRCA2−/− at 5000 cells per well, in growth media containing 10% FBS. Cells were allowed to adhere at room temperature for 60 minutes before returning to a 37 C, 5% CO2 incubator. After 24 hours, media was removed and replaced with fresh growth media containing various drug concentrations. Each drug concentration was added in triplicate. Non-drug treated controls contained growth media only. Cells were returned to the incubator. Ninety-six hours after addition of drug, cells were fixed with 4% paraformaldehyde for 20 minutes and stained with Hoechst at 1 ug/mL. The plates were imaged on a Cytation 5 auto imager (BioTek) and cells were counted using CellProfiler (http://cellprofiler.org). The percent cell growth delay was calculated and data plotted using GraphPad Prism.

A further assay deals with PARP (Homo sapiens, UniProt P09874). Briefly: Enzymatic Assay 2: HT Universal Chemiluminescent PARP Assay of cleaved compounds.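 Note: PARP reaction with activated DNA run 1 h at room temperature, product detected via streptavidin-HRP and luminescence endpoint reading on a plate reader.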
Setting [1] is: read-out: IC50 Enzymatic Assay 2, Examples cleaved per Example A (crude cleavage solution), R^8H starting materials as such.

PARP, sequence (P09874 whole entry): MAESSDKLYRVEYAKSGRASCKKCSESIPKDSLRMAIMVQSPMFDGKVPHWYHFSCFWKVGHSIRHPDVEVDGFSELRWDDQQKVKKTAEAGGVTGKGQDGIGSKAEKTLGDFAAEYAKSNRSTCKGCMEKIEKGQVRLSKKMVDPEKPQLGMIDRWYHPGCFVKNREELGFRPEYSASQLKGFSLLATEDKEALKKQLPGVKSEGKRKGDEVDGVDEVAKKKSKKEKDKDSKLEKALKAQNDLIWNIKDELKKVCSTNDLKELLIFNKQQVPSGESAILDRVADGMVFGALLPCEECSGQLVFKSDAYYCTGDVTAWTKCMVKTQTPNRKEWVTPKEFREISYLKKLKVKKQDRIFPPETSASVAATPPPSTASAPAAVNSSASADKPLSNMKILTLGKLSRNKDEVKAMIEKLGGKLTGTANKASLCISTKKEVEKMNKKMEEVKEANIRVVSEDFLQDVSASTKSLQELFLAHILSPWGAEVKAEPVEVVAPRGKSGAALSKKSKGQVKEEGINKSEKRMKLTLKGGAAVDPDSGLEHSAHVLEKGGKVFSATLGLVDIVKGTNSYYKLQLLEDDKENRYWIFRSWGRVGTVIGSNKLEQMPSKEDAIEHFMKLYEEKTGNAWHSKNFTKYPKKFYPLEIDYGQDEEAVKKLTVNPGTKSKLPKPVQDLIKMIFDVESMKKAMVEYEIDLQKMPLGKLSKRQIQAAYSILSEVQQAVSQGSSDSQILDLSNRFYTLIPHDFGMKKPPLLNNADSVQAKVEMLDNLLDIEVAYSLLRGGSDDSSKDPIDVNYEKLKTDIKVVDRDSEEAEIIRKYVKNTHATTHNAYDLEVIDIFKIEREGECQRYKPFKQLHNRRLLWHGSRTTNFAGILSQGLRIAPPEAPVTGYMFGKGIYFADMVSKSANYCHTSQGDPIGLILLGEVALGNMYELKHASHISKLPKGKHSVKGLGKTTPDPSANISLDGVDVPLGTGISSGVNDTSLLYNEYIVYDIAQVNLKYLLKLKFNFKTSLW

Turning to `CC[C@H](C)[C@H](NC(=O)[C@@H]1CCCN1C(=O)[C@H](CC(N)=O)NC(=O)[C@H](CCC(N)=O)NC(=O)[C@H](CCC(=O)O)NC(=O)[C@H](C)N)C(=O)N[C@@H](Cc1ccc(O)cc1)C(=O)N[C@@H](Cc1c[nH]c2ccccc12)C(=O)N[C@@H](C)C(=O)N[C@@H](CCCNC(=N)N)C(=O)N[C@@H](Cc1ccc(O)cc1)C(=O)N[C@@H](C)C(=O)N[C@@H](CC(=O)O)C(=O)N[C@@H](Cc1c[nH]c2ccccc12)C(=O)N[C@@H](CC(C)C)C(=O)N[C@@H](Cc1ccccc1)C(=O)N[C@H](C(=O)N[C@H](C(=O)N1CCC[C@H]1C(=O)N[C@@H](CC(C)C)C(=O)N[C@@H](CC(C)C)C(=O)N[C@@H](CC(C)C)C(=O)N[C@@H](CC(C)C)C(=O)N[C@@H](CC(=O)O)C(=O)N[C@@H](CC(C)C)C(=O)N[C@@H](C)C(=O)N[C@@H](CC(C)C)C(=O)N[C@@H](CC(C)C)C(=O)N[C@H](C(=O)N[C@@H](CC(=O)O)C(=O)N[C@@H](C)C(=O)N[C@@H](CC(=O)O)C(=O)N[C@@H](CCC(=O)O)C(=O)N[C@@H](CSSCCOC(=O)NCN1c2cc(F)cc3c(=O)[nH]nc(c23)[C@H](c2ncnn2C)[C@H]1c1ccc(F)cc1)C(=O)NCC(=O)O)C(C)C)[C@@H](C)O)[C@@H](C)O` [Example 12] (H-AEQNPIYWARYADWLFTTPLLLLDLALLVDADEC(X1)G-OH; N-terminus and C-terminus assumed), the results for the IC50 in the assay with DLD-1 BRCA2−/− cells and at PARP (setting [1]) were 162 nM and 0.47 nM, respectively.

With `CC[C@H](C)[C@H](NC(=O)[C@@H]1CCCN1C(=O)[C@H](CC(N)=O)NC(=O)[C@H](CCC(N)=O)NC(=O)[C@H](CCC(=O)O)NC(=O)[C@H](C)N)C(=O)N[C@@H](Cc1ccc(O)cc1)C(=O)N[C@@H](Cc1c[nH]c2ccccc12)C(=O)N[C@@H](C)C(=O)N[C@@H](CCCNC(=N)N)C(=O)N[C@@H](Cc1ccc(O)cc1)C(=O)N[C@@H](C)C(=O)N[C@@H](CC(=O)O)C(=O)N[C@@H](Cc1c[nH]c2ccccc12)C(=O)N[C@@H](CC(C)C)C(=O)N[C@@H](Cc1ccccc1)C(=O)N[C@H](C(=O)N[C@H](C(=O)N1CCC[C@H]1C(=O)N[C@@H](CC(C)C)C(=O)N[C@@H](CC(C)C)C(=O)N[C@@H](CC(C)C)C(=O)N[C@@H](CC(C)C)C(=O)N[C@@H](CC(=O)O)C(=O)N[C@@H](CC(C)C)C(=O)N[C@@H](C)C(=O)N[C@@H](CC(C)C)C(=O)N[C@@H](CC(C)C)C(=O)N[C@H](C(=O)N[C@@H](CC(=O)O)C(=O)N[C@@H](C)C(=O)N[C@@H](CC(=O)O)C(=O)N[C@@H](CCC(=O)O)C(=O)N[C@@H](CSS[C@@H](C)COC(=O)NCN1c2cc(F)cc3c(=O)[nH]nc(c23)[C@H](c2ncnn2C)[C@H]1c1ccc(F)cc1)C(=O)NCC(=O)O)C(C)C)[C@@H](C)O)[C@@H](C)O` [Example 13] (H-AEQNPIYWARYADWLFTTPLLLLDLALLVDADEC(X7)G-OH; N-terminus and C-terminus assumed), the IC50 in the assay on DLD-1 BRCA2−/− cells came to 51 nM; at PARP (setting [1]), 1 nM. For `CC[C@H](C)[C@H](NC(=O)[C@@H]1CCCN1C(=O)[C@H](CC(N)=O)NC(=O)[C@H](CCC(N)=O)NC(=O)[C@H](CCC(=O)O)NC(=O)[C@H](C)N)C(=O)N[C@@H](Cc1ccc(O)cc1)C(=O)N[C@@H](Cc1c[nH]c2ccccc12)C(=O)N[C@@H](C)C(=O)N[C@@H](CCCNC(=N)N)C(=O)N[C@@H](Cc1ccc(O)cc1)C(=O)N[C@@H](C)C(=O)N[C@@H](CC(=O)O)C(=O)N[C@@H](Cc1c[nH]c2ccccc12)C(=O)N[C@@H](CC(C)C)C(=O)N[C@@H](Cc1ccccc1)C(=O)N[C@H](C(=O)N[C@H](C(=O)N1CCC[C@H]1C(=O)N[C@@H](CC(C)C)C(=O)N[C@@H](CC(C)C)C(=O)N[C@@H](CC(C)C)C(=O)N[C@@H](CC(C)C)C(=O)N[C@@H](CC(=O)O)C(=O)N[C@@H](CC(C)C)C(=O)N[C@@H](C)C(=O)N[C@@H](CC(C)C)C(=O)N[C@@H](CC(C)C)C(=O)N[C@H](C(=O)N[C@@H](CC(=O)O)C(=O)N[C@@H](C)C(=O)N[C@@H](CC(=O)O)C(=O)N[C@@H](CCC(=O)O)C(=O)N[C@@H](CSS[C@H](C)COC(=O)NCN1c2cc(F)cc3c(=O)[nH]nc(c23)[C@H](c2ncnn2C)[C@H]1c1ccc(F)cc1)C(=O)NCC(=O)O)C(C)C)[C@@H](C)O)[C@@H](C)O` [Example 14] (H-AEQNPIYWARYADWLFTTPLLLLDLALLVDADEC(X4)G-OH; N-terminus and C-terminus assumed), in that order: 72 nM and 0.5 nM. Consider `CC[C@H](C)[C@H](NC(=O)[C@@H]1CCCN1C(=O)[C@H](CC(N)=O)NC(=O)[C@H](CCC(N)=O)NC(=O)[C@H](CCC(=O)O)NC(=O)[C@H](C)N)C(=O)N[C@@H](Cc1ccc(O)cc1)C(=O)N[C@@H](Cc1c[nH]c2ccccc12)C(=O)N[C@@H](C)C(=O)N[C@@H](CCCNC(=N)N)C(=O)N[C@@H](Cc1ccc(O)cc1)C(=O)N[C@@H](C)C(=O)N[C@@H](CC(=O)O)C(=O)N[C@@H](Cc1c[nH]c2ccccc12)C(=O)N[C@@H](CC(C)C)C(=O)N[C@@H](Cc1ccccc1)C(=O)N[C@H](C(=O)N[C@H](C(=O)N1CCC[C@H]1C(=O)N[C@@H](CC(C)C)C(=O)N[C@@H](CC(C)C)C(=O)N[C@@H](CC(C)C)C(=O)N[C@@H](CC(C)C)C(=O)N[C@@H](CC(=O)O)C(=O)N[C@@H](CC(C)C)C(=O)N[C@@H](C)C(=O)N[C@@H](CC(C)C)C(=O)N[C@@H](CC(C)C)C(=O)N[C@H](C(=O)N[C@@H](CC(=O)O)C(=O)N[C@@H](C)C(=O)N[C@@H](CC(=O)O)C(=O)N[C@@H](CCC(=O)O)C(=O)N[C@@H](CSSCCOC(=O)N1CCC[C@]1(C)c1nc2c(C(N)=O)cccc2[nH]1)C(=O)NCC(=O)O)C(C)C)[C@@H](C)O)[C@@H](C)O` [Example 53] (H-AEQNPIYWARYADWLFTTPLLLLDLALLVDADEC(X22)G-OH; N-terminus and C-terminus assumed), for which the IC50 on PARP (setting [1]) came out at 1 nM. Still for that read-out and setting: the figure for `CC[C@H](C)[C@H](NC(=O)[C@@H]1CCCN1C(=O)[C@H](CC(N)=O)NC(=O)[C@H](CCC(N)=O)NC(=O)[C@H](CCC(=O)O)NC(=O)[C@H](C)N)C(=O)N[C@@H](Cc1ccc(O)cc1)C(=O)N[C@@H](Cc1c[nH]c2ccccc12)C(=O)N[C@@H](C)C(=O)N[C@@H](CCCNC(=N)N)C(=O)N[C@@H](Cc1ccc(O)cc1)C(=O)N[C@@H](C)C(=O)N[C@@H](CC(=O)O)C(=O)N[C@@H](Cc1c[nH]c2ccccc12)C(=O)N[C@@H](CC(C)C)C(=O)N[C@@H](Cc1ccccc1)C(=O)N[C@H](C(=O)N[C@H](C(=O)N1CCC[C@H]1C(=O)N[C@@H](CC(C)C)C(=O)N[C@@H](CC(C)C)C(=O)N[C@@H](CC(C)C)C(=O)N[C@@H](CC(C)C)C(=O)N[C@@H](CC(=O)O)C(=O)N[C@@H](CC(C)C)C(=O)N[C@@H](C)C(=O)N[C@@H](CC(C)C)C(=O)N[C@@H](CC(C)C)C(=O)N[C@H](C(=O)N[C@@H](CC(=O)O)C(=O)N[C@@H](C)C(=O)N[C@@H](CC(=O)O)C(=O)N[C@@H](CCC(=O)O)C(=O)N[C@@H](CSS[C@H](C)COC(=O)N1CCC[C@]1(C)c1nc2c(C(N)=O)cccc2[nH]1)C(=O)NCC(=O)O)C(C)C)[C@@H](C)O)[C@@H](C)O` [Example 54] (H-AEQNPIYWARYADWLFTTPLLLLDLALLVDADEC(X16)G-OH; N-terminus and C-terminus assumed) is 0.6 nM; for `CC[C@H](C)[C@H](NC(=O)[C@@H]1CCCN1C(=O)[C@H](CC(N)=O)NC(=O)[C@H](CCC(N)=O)NC(=O)[C@H](CCC(=O)O)NC(=O)[C@H](C)N)C(=O)N[C@@H](Cc1ccc(O)cc1)C(=O)N[C@@H](Cc1c[nH]c2ccccc12)C(=O)N[C@@H](C)C(=O)N[C@@H](CCCNC(=N)N)C(=O)N[C@@H](Cc1ccc(O)cc1)C(=O)N[C@@H](C)C(=O)N[C@@H](CC(=O)O)C(=O)N[C@@H](Cc1c[nH]c2ccccc12)C(=O)N[C@@H](CC(C)C)C(=O)N[C@@H](Cc1ccccc1)C(=O)N[C@H](C(=O)N[C@H](C(=O)N1CCC[C@H]1C(=O)N[C@@H](CC(C)C)C(=O)N[C@@H](CC(C)C)C(=O)N[C@@H](CC(C)C)C(=O)N[C@@H](CC(C)C)C(=O)N[C@@H](CC(=O)O)C(=O)N[C@@H](CC(C)C)C(=O)N[C@@H](C)C(=O)N[C@@H](CC(C)C)C(=O)N[C@@H](CC(C)C)C(=O)N[C@H](C(=O)N[C@@H](CC(=O)O)C(=O)N[C@@H](C)C(=O)N[C@@H](CC(=O)O)C(=O)N[C@@H](CCC(=O)O)C(=O)N[C@@H](CSS[C@@H](C)COC(=O)N1CCC[C@]1(C)c1nc2c(C(N)=O)cccc2[nH]1)C(=O)NCC(=O)O)C(C)C)[C@@H](C)O)[C@@H](C)O` [Example 55] (H-AEQNPIYWARYADWLFTTPLLLLDLALLVDADEC(X14)G-OH; N-terminus and C-terminus assumed) it is 0.7 nM; for `CC(C)C[C@H](NC(=O)[C@H](Cc1ccc(O)cc1)NC(=O)[C@H](C)NC(=O)[C@H](CCCNC(=N)N)NC(=O)[C@H](Cc1c[nH]c2ccccc12)NC(=O)[C@@H]1CCCN1C(=O)[C@H](CC(N)=O)NC(=O)[C@H](CCC(N)=O)NC(=O)[C@H](CC(=O)O)NC(=O)[C@H](CC(=O)O)NC(=O)[C@H](C)N)C(=O)N[C@@H](CC(=O)O)C(=O)N[C@@H](CC(C)C)C(=O)N[C@@H](CC(C)C)C(=O)N[C@@H](Cc1ccccc1)C(=O)N1CCC[C@H]1C(=O)N[C@H](C(=O)N[C@@H](CC(=O)O)C(=O)N[C@H](C(=O)N[C@@H](CC(C)C)C(=O)N[C@@H](CC(C)C)C(=O)N[C@@H](CC(C)C)C(=O)N[C@@H](CC(=O)O)C(=O)N[C@@H](CC(C)C)C(=O)N[C@@H](CC(C)C)C(=O)N[C@@H](Cc1c[nH]c2ccccc12)C(=O)N[C@@H](CC(=O)O)C(=O)N[C@@H](C)C(=O)N[C@@H](CC(=O)O)C(=O)N[C@@H](CCC(=O)O)C(=O)N[C@@H](CSSc1ccc(COC(=O)N2CCC[C@]2(C)c2nc3c(C(N)=O)cccc3[nH]2)cc1)C(=O)NCC(=O)O)[C@@H](C)O)[C@@H](C)O` [Example 56] it is 0.8 nM. At PARP, `C[C@]12CCCN1C1=NNC(=O)c3cc(F)cc4[nH]c(c1c34)C2` [R^8H-17, reference compound] registered an IC50 of 1 nM.

A word on the IC50: it is the concentration that inhibits the measured activity by half.
